{"source": "paper PMC4822253", "about": "“Inhibition of BMP and of TGFβ receptors downregulates expression of XIAP and TAK1 leading to lung cancer cell death” (Molecular Cancer, 2016)", "key": {"TGFbetaR2": {"molecular_target": "T1, TGFbetaR2 (Homo sapiens, UniProt P37173)", "T1 construct": "purchased Reaction Biology Corporation (Malvern, PA)", "T1 sequence (P37173 23-567)": "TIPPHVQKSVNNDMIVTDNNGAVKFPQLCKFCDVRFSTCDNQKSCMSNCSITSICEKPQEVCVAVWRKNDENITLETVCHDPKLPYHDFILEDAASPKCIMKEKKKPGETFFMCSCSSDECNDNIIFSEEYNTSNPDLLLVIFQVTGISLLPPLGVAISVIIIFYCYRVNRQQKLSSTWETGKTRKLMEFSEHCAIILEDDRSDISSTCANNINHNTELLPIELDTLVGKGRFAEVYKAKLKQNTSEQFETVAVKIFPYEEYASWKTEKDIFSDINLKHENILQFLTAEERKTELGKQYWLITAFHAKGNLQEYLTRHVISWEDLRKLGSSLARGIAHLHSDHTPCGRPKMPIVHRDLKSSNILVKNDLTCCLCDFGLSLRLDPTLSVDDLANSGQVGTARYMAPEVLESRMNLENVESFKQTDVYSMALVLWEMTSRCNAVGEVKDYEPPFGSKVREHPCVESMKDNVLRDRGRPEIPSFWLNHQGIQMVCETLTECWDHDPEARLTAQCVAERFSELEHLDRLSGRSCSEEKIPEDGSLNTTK", "assay": "In vitro kinase IC50", "format": "biochemical", "conditions": "kinase activity; ATP 10 Micromolar; 10-point, duplicate", "from_the_text": "The ATP concentration was 10 Micromolar."}, "[1]": {"test_system": "lung cancer cell lines H157, A549, H1299, H727, U1752", "assay": "Western blot of Id1 in panel of lung cancer cell lines", "format": "cell-based", "conditions": "1 μM; 48 h; all cell lines of the panel", "method": "Total cellular protein was prepared using RIPA buffer containing a protease inhibitor cocktail and protein concentration was measured using the BCA assay as described. In brief, protein was analyzed by SDS-PAGE, transferred to nitrocellulose (Schleicher and Schuell, Keene, NH). After blocking, the blots were incubated overnight at 4 °C with the appropriate primary antibody in Tris-buffered saline with 1 % Tween (TBST) and 5 % BSA. Secondary antibodies were applied for 1 h at room temperature. Specific proteins were detected using the enhanced chemiluminescence system (Amersham, Arlington Heights, IL). The primary antibodies that were used were rabbit monoclonal anti-pSmad 1/5, rabbit monoclonal anti-pSmad2, rabbit monoclonal anti-Smad2, rabbit monoclonal anti-pTAK1, rabbit monoclonal XIAP, rabbit anti-monoclonal p-p65, rabbit monoclonal anti-activated caspase-3, rabbit polyclonal anti-BMPRII, and rabbit monoclonal anti-EGR-1 (Cell signaling Technology, Danvers MA), Rabbit monoclonal anti-TAK1 (Invitrogen, Grand Island NY), rabbit anti-actin, an affinity isolated antigen specific antibody (Sigma, Saint Louis, MO), rabbit monoclonal anti-Id1 and rabbit monoclonal anti-Id3 (Calbioreagents, San Mateo, CA), rabbit polyclonal anti-GAPDH (Sigma, St. Louis, MO) and rabbit polyclonal pMEK-1/2 (Cell Signaling, Danvers MA).\nAdditional file 1: Figure S1. […]"}, "H1299 Id1-luc cells": {"test_system": "H1299 Id1-luc cells", "assay": "Id1-promoter luciferase reporter assay", "format": "cell-based", "conditions": "1.0 μM and 2.5 μM, 48 h", "method": "H1299 cells were stably transfected with the Id1-promoter luciferase reporter. Treated cells were lysed with 1X luciferase lysis buffer (Promega). Samples were added to luciferase assay substrate (Promega) and luminsescence measured by the TD-20/20 Luminometer (Turner Designs/Turner BioSystems, Sunnyvale, CA). Control samples included luciferase assay substrate alone and luciferase assay substrate plus 1X reporter lysis buffer."}, "A549 cells": {"test_system": "A549 cells", "assay": "Cell death assay (ethidium bromide uptake)", "format": "cell-based", "conditions": "after 3 days", "method": "(§1) Cells were plated in 6 well plates with 10^6 cells per well. Three days following treatment with inhibitor(s) and/or transfection the adherent and floating cells were harvested and incubated with 0.1 mg/ml of ethidium bromide. Cells that die by necrosis or apoptosis lose membrane integrity and take up ethidium bromide. Immediately after staining approximately 100 cells were counted and the percentage of cells that took up ethidium bromide was determined."}, "H1299 cells": {"test_system": "H1299 cells", "assay": "Cell death assay (ethidium bromide uptake)", "format": "cell-based", "method": "as §1"}, "[2]": {"test_system": "lung cancer cell lines H157, A549, H1299, H727, U1752", "assay": "Cell counts in panel of lung cancer cell lines", "format": "cell-based", "conditions": "1 μM; 7 days; percent of vehicle control", "method": "Cells were plated into 6 well plates at 10^5 cells per well and treated with 1 μM DMSO or antagonist for 7 days. The cells were detached with trypsin, stained with trypan blue, and the number of live cells counted using a hemocytometer.\nAdditional file 1: Figure S1. […] Data is depicted as percent of vehicle control. Experiments were performed 3 times. (TIF 749 kb) Additional file 2: Figure S2. […] Non-specific band from the same Western blot was used as a loading control. Experiments performed at least 3 times. (TIF 2680 kb) Additional file 3: Figure S3. Pharmacokinetics of DMH2. […] (TIF 1187 kb) Additional file 4: Figure S4. […] (A-B) Western blot of tumor xenografts treated with BMP inhibitors for 24 h and 9 days. […] (E-G) Data depict the mean as the percent of control. Experiments were performed at least 3 times. (TIF 9413 kb) Additional file 5: Figure S5. […] The data represents the mean of at least 4 experiments. (TIF 359 kb) Additional file 6: Figure S6. […] The studies represent the mean of at least 3 independent experiments. […] (TIF 2411 kb)"}, "[3]": {"test_system": "H1299 Id1-luc tumor xenografts", "assay": "Tumor xenograft Id1 promoter-luciferase luminescence", "format": "in vivo, nude mice", "conditions": "3 mg/kg IP; 4 h, 24 h, and 48 h following treatment; greatest effect at 24 h", "method": "H1299 cells were stably transfected with the Id1 promoter-luciferase reporter. Five million cells were injected subcutaneously into the flank of NCI female nude mice. After approximately 12 days the mice were anesthetized and the luciferase activity measured. Baseline luciferase activity was obtained just prior to the injection of inhibitors. Mice were injected IP with 150 mg/kg luciferin-D and after a 15-min uptake period tumors were imaged with IVIS Spectrum and analyzed using Living Image software. […] The tumors were harvested on ice, homogenized, and placed in lysis buffer."}, "[4]": {"assay": "Plasma protein binding by equilibrium dialysis", "format": "in vitro ADME", "conditions": "mouse plasma"}}, "note": "pIC50: −log10 of the molar value."}
{"smiles": "c1ccc2c(-c3cnn4cc(-c5ccc(OCCN6CCOCC6)cc5)cnc34)ccnc2c1", "note": "[DMH2]", "values": [{"measurement": "pIC50", "setting": "TGFbetaR2", "value": 6.71}, {"measurement": "expression of Id1", "setting": "[1]", "value": "decreased"}, {"measurement": "suppression of Id1 promoter activity in comparison to DMH1", "setting": "H1299 Id1-luc cells", "value": "significantly greater suppression"}, {"measurement": "cell death", "setting": "A549 cells", "value": "significant cells death"}, {"measurement": "cell death compared to DMH1 and LDN", "setting": "H1299 cells; H1299 cells", "value": "significantly greater"}, {"measurement": "cell death in cells expressing mutant XIAP", "setting": "H1299 cells; H1299 cells stably expressing mutant XIAP, 3 days", "value": "resistant to cell death"}, {"measurement": "cell death", "setting": "H1299 cells; H1299 cells, after 3 days", "value": "significant cells death"}, {"measurement": "growth (cell counts)", "setting": "[2]", "value": "inhibited growth in all of the cell lines"}, {"measurement": "tumor luminescence (Id1 promoter) compared to baseline", "setting": "[3]", "value": "increased"}, {"measurement": "percent binding plasma proteins", "setting": "[4]", "value": 98.2, "unit": "% +/−1.5"}]}
